# Assay results taken from US12459951B2, “Compounds that interact with RAS superfamily proteins for treatment of cancers, inflammatory diseases, rasopathies, and fibrotic disease” (SHY Therapeutics, LLC, priority 2022, dated 2025).
# Tests used:
# IL6 = assay: IL-6 Quantification Assay (ELISA), LPS-stimulated RAW 264.7; type: cell-based; set-up: inhibition: dose or concentration left out as unconfirmed; details: Mus musculus, RAW264.7; read-out: IL-6: % inh.
# TNF-alpha = TNF-alpha Quantification Assay (ELISA), LPS-stimulated RAW 264.7; type: cell-based; details: Mus musculus, RAW264.7; at 10 μM; read-out: TNFα: % inh.
# Akt phosphorylation = assay: Akt Phosphorylation Assay (western blot), Panc-1; type: cell-based, human; details: at 10 μM, * = activation
# Procedure, shortened: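 Phospho-Akt (Ser473) was measured by western blot in lysates of KRas G12D Panc-1 cells exposed to test compound for 6 h at 37 °C, either at 10 μM final with 0.3% DMSO or as serial dilutions for IC50. One format used overnight 0.5% FBS starvation followed by a 15 min pulse of 1.5 ng/ml EGF. The other used cells in 10% FBS with no stimulation.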
# KRas G12D mutant = assay: Ras GTP Binding Domain Inhibition Assay (Ras Superfamily Assay); details: for KRas G12D mutant + SOS: % inh.: with SOS; for KRas G12D mutant: % inh.: without SOS
# Procedure, shortened: (§1)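 Binding of 100 nM fluorescent GTP (Cy3 or Cy5, 45 min, room temperature) was read after washes from plate-captured His-tagged protein. Beforehand, compounds at 20 μM or in dilution series for IC50 sat 3 h on the protein in Tris buffer pH 7.4 or 7.0 with 1% DMSO, Sos GEF optionally added for the last hour.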
# Rac-1 = biological target: T1, Rac-1 (Homo sapiens, UniProt P63000); assay: as above; details: read-out: Rac-1: % inh.
# T1 construct: made in house
# Procedure, shortened: as §1
# KRas wild type = assay: as above; details: for KRas wild type + SOS: % inh.: with SOS; for KRas wild type: % inh.: without SOS
# Procedure, shortened: as §1
KRas G12D mutant + SOS: % inh. (KRas G12D mutant; at 20 μM),KRas G12D mutant: % inh. (KRas G12D mutant; at 20 μM),inhibition at 20 µM (Rac-1) [%],KRas wild type + SOS: % inh. (KRas wild type; at 20 μM),KRas wild type: % inh. (KRas wild type; at 20 μM),KRas G12D mutant + SOS: % inh. (KRas G12D mutant; 20 μM compound),KRas G12D mutant: % inh. (KRas G12D mutant; 20 μM compound),KRas wild type + SOS: % inh. (KRas wild type; 20 μM compound),KRas wild type: % inh. (KRas wild type; 20 μM compound),SMILES,inhibition (IL6) [%],inhibition at 10 µM (TNF-alpha) [%],% inh of Akt phosphorylation in Panc-1 (Akt phosphorylation)
D (D = 76-100% inhibition),D (D = 76-100% inhibition),76 to 100,D (D = 76-100% inhibition),D (D = 76-100% inhibition),–,–,–,–,"Cc1c(-c2ccn(C)n2)cn2nc(-c3nccn3C)nc(Nc3ccc(C(F)(F)F)cn3)c12 [Compound 233, 5-Methyl-2-(1-methyl-1H-imidazol-2-yl)-6-(1-methyl-1H-pyrazol-3-yl)-N-(5-(trifluoromethyl)pyridin-2-yl)pyrrolo[2,1-f][1,2,4]triazin-4-amine]",25 to 49,1 to 24,D* (85-100% activation)
A (A = 1-25% inhibition),A (A = 1-25% inhibition),1 to 25,A (A = 1-25% inhibition),A (A = 1-25% inhibition),–,–,–,–,"CO[C@H]1C[C@H](Nc2nc(-c3nccn3C)nn3cc(-c4cnccc4C)c(-c4ccccc4)c23)C1 [Compound 218, N-((1r,3r)-3-Methoxycyclobutyl)-2-(1-methyl-1H-imidazol-2-yl)-6-(4-methylpyridin-3-yl)-5-phenylpyrrolo[2,1-f][1,2,4]triazin-4-amine]",1 to 24,1 to 24,D* (85-100% activation)

# More lines, now with the values behind:
SMILES,KRas G12D mutant + SOS: % inh. (KRas G12D mutant; at 20 μM),KRas G12D mutant: % inh. (KRas G12D mutant; at 20 μM),inhibition at 20 µM (Rac-1) [%],KRas wild type + SOS: % inh. (KRas wild type; at 20 μM),KRas wild type: % inh. (KRas wild type; at 20 μM),KRas G12D mutant + SOS: % inh. (KRas G12D mutant; 20 μM compound),KRas G12D mutant: % inh. (KRas G12D mutant; 20 μM compound),KRas wild type + SOS: % inh. (KRas wild type; 20 μM compound),KRas wild type: % inh. (KRas wild type; 20 μM compound),inhibition (IL6) [%],inhibition at 10 µM (TNF-alpha) [%],% inh of Akt phosphorylation in Panc-1 (Akt phosphorylation)
"COCCNc1nc(-c2nccn2C)nn2cc(-c3ccncc3)c(-c3ccccc3)c12 [Compound 202, N-(2-Methoxyethyl)-2-(1-methyl-1H-imidazol-2-yl)-5-phenyl-6-(pyridin-4-yl)pyrrolo[2,1-f][1,2,4]triazin-4-amine]",C (C = 50-75% inhibition),C (C = 50-75% inhibition),26 to 49,C (C = 50-75% inhibition),B (B = 26-49% inhibition),–,–,–,–,50 to 74,1 to 24,B (26-49% inhibition)
"COc1ccnc(Nc2nc(-c3nccn3C)nn3cc(-c4ccn(C)n4)c(C(=O)NCCN(C)C)c23)c1 [Compound 177, N-(2-(Dimethylamino)ethyl)-4-((4-methoxypyridin-2-yl)amino)-2-(1-methyl-1H-imidazol-2-yl)-6-(1-methyl-1H-pyrazol-3-yl)pyrrolo[2,1-f][1,2,4]triazine-5-carboxamide]",–,–,76 to 100,–,–,D (D = 76-100% inhibition),C (C = 50-75% inhibition),D (D = 76-100% inhibition),D (D = 76-100% inhibition),75 to 100,0,A* (1-25% activation)
"COc1ccnc(Nc2nc(-c3nccn3CCNC(=O)CCCC[C@H]3SC[C@H]4NC(=O)N[C@H]43)nn3cc(-c4ccn(C)n4)c(C)c23)c1 [Compound 216, N-(2-(2-(4-((4-methoxypyridin-2-yl)amino)-5-methyl-6-(1-methyl-1H-pyrazol-3-yl)pyrrolo[2,1-f][1,2,4]triazin-2-yl)-1H-imidazol-1-yl)ethyl)-5-((3aR,4R,6aS)-2-oxohexahydro-1H-thieno[3,4-d]imidazol-4-yl)pentanamide]",D (D = 76-100% inhibition),D (D = 76-100% inhibition),76 to 100,D (D = 76-100% inhibition),D (D = 76-100% inhibition),–,–,–,–,50 to 74,25 to 49,A* (1-25% activation)
